Measured values published in US10087188B2, “Benzamide imidazopyrazine Btk inhibitors” (MERCK SHARP & DOHME CORP., priority 2014, dated 2018).

These compounds were tested against BTK enzyme (recombinant full-length BTK, hBTK) (Homo sapiens (Human), UniProt Q06187) (assay: Btk enzyme activity assay, LANCE TR-FRET). Settings: 50 pM hBTK, 2 μM biotin-A5-peptide, 25 μM ATP; 60 minute compound & enzyme incubation; read-out: BTK binding IC50.
Type: biochemical
Experimental: Btk Enzyme Activity Assay Methods
BTK enzymatic activity was determined with the LANCE (Lanthanide Chelate Excite) TR-FRET (Time-resolved fluorescence resonance energy transfer) assay. […] After 60 minutes incubation with detection reagents, reaction plates were read on a PerkinElmer EnVision plate reader using standard TR-FRET protocol.

Chain of BTK enzyme (recombinant full-length BTK, hBTK) (Q06187 whole entry): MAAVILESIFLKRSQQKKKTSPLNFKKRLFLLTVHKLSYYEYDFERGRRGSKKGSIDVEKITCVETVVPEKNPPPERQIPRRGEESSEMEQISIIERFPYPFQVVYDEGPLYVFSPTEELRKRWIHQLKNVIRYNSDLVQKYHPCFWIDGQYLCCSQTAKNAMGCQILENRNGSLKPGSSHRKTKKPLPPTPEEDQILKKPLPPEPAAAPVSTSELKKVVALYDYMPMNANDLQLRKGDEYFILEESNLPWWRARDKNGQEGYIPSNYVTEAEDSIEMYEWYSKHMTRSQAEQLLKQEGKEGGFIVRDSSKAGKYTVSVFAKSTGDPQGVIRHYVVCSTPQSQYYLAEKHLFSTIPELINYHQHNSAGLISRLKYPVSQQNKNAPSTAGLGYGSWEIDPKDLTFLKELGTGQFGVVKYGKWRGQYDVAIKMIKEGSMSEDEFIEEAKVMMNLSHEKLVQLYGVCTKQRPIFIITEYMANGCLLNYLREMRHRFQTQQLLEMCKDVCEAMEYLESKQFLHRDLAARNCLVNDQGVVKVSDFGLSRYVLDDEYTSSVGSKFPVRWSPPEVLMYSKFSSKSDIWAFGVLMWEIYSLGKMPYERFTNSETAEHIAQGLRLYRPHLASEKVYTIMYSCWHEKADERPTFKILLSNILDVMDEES

| Compound | IC50 [µM] |
| --- | --- |
| Nc1nccn2c([C@H]3CCC[C@@H](C(=O)O)C3)nc(-c3ccc(C(=O)Nc4cc(C5CC5)ccn4)cc3)c12 [Example 4, (1R,3S)-3-(8-amino-1-{4-[(4-cyclopropyl-pyridin-2-yl)carbamoyl]phenyl}imidazo [1,5-a]pyrazin-3-yl)cyclohexane-carboxylic acid] | 0.0295 |
| COc1cc(C(=O)Nc2cc(C(F)(F)F)ccn2)ccc1-c1nc([C@H]2CCC[C@@H](C(=O)O)C2)n2ccnc(N)c12 [Example 5, (1R,3S)-3-[8-amino-1-(2-methoxy-4-{[4-(trifluoromethyl)pyridin-2-yl]carbamoyl}phenyl)imidazo [1,5-a]pyrazin-3-yl]cyclohexane-carboxylic acid] | 0.0409 |
| CCc1ccnc(NC(=O)c2ccc(-c3nc([C@@H]4CCC[C@H](C(=O)O)C4)n4ccnc(N)c34)cc2)c1 [Example 7, (1S,3R)-3-(8-amino-1-{4-[(4-ethylpyridin-2-yl)carbamoyl]phenyl}imidazo [1,5-a]pyrazin-3-yl)cyclohexane-carboxylic acid] | 0.0014 |
| Nc1nccn2c([C@@H]3CCC[C@H](C(=O)O)C3)nc(-c3ccc(C(=O)Nc4cc(C5CC5)ccn4)cc3)c12 [Example 8, (1S,3R)-3-(8-amino-1-{4-[(4-cyclopropyl-pyridin-2-yl)carbamoyl]phenyl}imidazo [1,5-a]pyrazin-3-yl)cyclohexane-carboxylic acid] | 0.0021 |

What follows are compounds tested on HeLa cells (assay: [3H] Adenosine uptake assay). Settings: Homo sapiens, HeLa, accumulation of tritiated adenosine into HeLa cells; compound concentration range 10 μM to 0.032 nM; read-out: ADU inhibition IC50 (adenosine uptake inhibition potency).
Type: cell-based
Experimental: Compounds are also screen in an adenosine uptake functional cellular assay using the protocol described below:
[^3H] Adenosine Uptake Assay Methods
Adenosine uptake activity was determined by monitoring the accumulation of tritiated adenosine into HeLa cells (ATCC catalog #CCL-2) using a PMT-based radiometric detection instrument. […] These cells were incubated overnight at 37° C. in a humidified atmosphere with 5% (v/v) CO2. After this time the growth medium was removed and replaced with 40 μL assay medium comprising: Hanks balanced salts solution (HBSS; Thermo Fisher Catalog #SH30268.01)+5% (v/v) FBS. Compound stock solutions in DMSO were diluted in assay medium to 2.5× final compound concentration maintaining a constant DMSO concentration of 0.25% (v/v). 40 μL of compound in assay medium was dispensed into individual wells of the Cytostar-T plates and the plates were incubated for 30 minutes under ambient laboratory conditions. Following this incubation, 20 μL of 500 nM[^3H] adenosine (American Radiolabeled Chemicals Inc. Catalog #ART0287) in assay medium was added and incubated for a further 60 minutes under ambient laboratory conditions. The amount of radiolabel accumulation was then determined using a Perkin Elmer Topcount NXT microplate reader. In brief, HeLa cells adhere to the bottom of the Cytostar-T plate, uptake of [^3H]adenosine into these cells brings the radiolabel into sufficient proximity to excite the scintillant in the base of the plates. These events are captured by single PMT, time-resolved coincidence counting. IC50 values were determined by 4 parameter robust fit of counts per second values vs. (Log10) compound concentrations.

| Compound | IC50 [µM] |
| --- | --- |
| Nc1nccn2c([C@@H]3CC[C@@H](CC(=O)O)C3)nc(-c3ccc(C(=O)Nc4cc(C(F)(F)F)ccn4)cc3)c12 [Example 55, {(1R,3R)-3-[8-amino-1-(4-{[4-(trifluoromethyl)pyridin-2-yl]carbamoyl}phenyl)imidazo[1,5-a]pyrazin-3-yl]cyclopentyl}acetic acid] | 7.98 |

Same assay, conditions: Homo sapiens; accumulation of tritiated adenosine into HeLa cells; compound concentration range 10 μM to 0.032 nM; read-out: ADU inhibition IC50 (adenosine uptake inhibition potency)

| Compound | IC50 [µM] |
| --- | --- |
| Nc1nccn2c([C@H]3CC[C@@H](C(=O)O)C3)nc(-c3ccc(C(=O)Nc4cc(C(F)(F)F)ccn4)cc3)c12 [Example 14, (1R,3S)-3-(8-amino-1-(4-((4-(trifluoromethyl)pyridin-2-yl)carbamoyl)phenyl)imidazo[1,5-a]pyrazin-3-yl)cyclopentanecarboxylic acid] | 2.5 |
| C[C@]1(C(=O)O)CC[C@@H](c2nc(-c3ccc(C(=O)Nc4cc(C(F)(F)F)ccn4)cc3)c3c(N)nccn23)C1 [Example 37, (1S,3R)-3-[8-amino-1-(4-{[4-(trifluoromethyl)pyridin-2-yl]carbamoyl}phenyl)imidazo[1,5-a]pyrazin-3-yl]-1-methylcyclopentane-carboxylic acid] | 8.55 |
| C[C@@]1(C(=O)O)CC[C@H](c2nc(-c3ccc(C(=O)Nc4cc(C(F)(F)F)ccn4)cc3)c3c(N)nccn23)C1 [Example 40, (1R,3S)-3-[8-amino-1-(4-{[4-(trifluoromethyl)pyridin-2-yl]carbamoyl}phenyl)imidazo[1,5-a]pyrazin-3-yl]-1-methylcyclopentane-carboxylic acid] | 5.28 |
| CC(C)[C@]1(C(=O)O)CC[C@@H](c2nc(-c3ccc(C(=O)Nc4cc(C(F)(F)F)ccn4)cc3)c3c(N)nccn23)C1 [Example 46, (1S,3R)-3-[8-amino-1-(4-{[4-(trifluoromethyl)pyridin-2-yl]carbamoyl}phenyl)imidazo[1,5-a]pyrazin-3-yl]-1-(1-methylethyl) cyclopentane carboxylic acid] | 4 |
| CC(C)[C@@]1(C(=O)O)CC[C@H](c2nc(-c3ccc(C(=O)Nc4cc(C(F)(F)F)ccn4)cc3)c3c(N)nccn23)C1 [Example 48, (1R,3S)-3-[8-amino-1-(4-{[4-(trifluoromethyl)pyridin-2-yl]carbamoyl}phenyl)imidazo[1,5-a]pyrazin-3-yl]-1-(1-methylethyl) cyclopentane-carboxylic acid] | 3.76 |
| CC(C)[C@]1(C(=O)O)CC[C@H](c2nc(-c3ccc(C(=O)Nc4cc(C(F)(F)F)ccn4)cc3)c3c(N)nccn23)C1 [Example 49, (1S,3S)-3-[8-amino-1-(4-{[4-(trifluoromethyl)pyridin-2-yl]carbamoyl}phenyl)imidazo[1,5-a]pyrazin-3-yl]-1-(1-methylethyl) cyclopentane-carboxylic acid] | 0.922 |
| CC(C)[C@]1(C(=O)O)CCC[C@@H](c2nc(-c3ccc(C(=O)Nc4cc(C(F)(F)F)ccn4)cc3)c3c(N)nccn23)C1 [Example 89, (1S,3R)-3-[8-amino-1-(4-{[4-(trifluoromethyl)pyridin-2-yl]carbamoyl}phenyl)imidazo[1,5-a]pyrazin-3-yl]-1-(1-methylethyl) cyclohexane-carboxylic acid] | 3.41 |
| CC(C)[C@H]1CC[C@@H](c2nc(-c3ccc(C(=O)Nc4cc(C(F)(F)F)ccn4)cc3)c3c(N)nccn23)C[C@H]1C(=O)O [Example 99, (1R,2R,5R)-5-[8-amino-1-(4-{[4-(trifluoromethyl)pyridin-2-yl]carbamoyl}phenyl)imidazo[1,5-a]pyrazin-3-yl]-2-(1-methylethyl) cyclohexane-carboxylic acid] | 2.51 |
| Nc1nccn2c([C@@H]3C[C@@H]4[C@H](C3)[C@@H]4C(=O)O)nc(-c3ccc(C(=O)Nc4cc(C(F)(F)F)ccn4)cc3)c12 [Example 124, (1R,3r,5S,6s)-3-[8-amino-1-(4-{[4-(trifluoromethyl)pyridin-2-yl]carbamoyl}phenyl)imidazo[1,5-a]pyrazin-3-yl]bicyclo[3.1.0] hexane-6-carboxylic acid] | 6.12 |
| Nc1nccn2c([C@@H]3C[C@@H]4[C@H](C3)[C@H]4C(=O)O)nc(-c3ccc(C(=O)Nc4cc(C(F)(F)F)ccn4)cc3)c12 [Example 125, (1R,3R,5S,6r)-3-[8-amino-1-(4-{[4-(trifluoromethyl)pyridin-2-yl]carbamoyl}phenyl)imidazo[1,5-a]pyrazin-3-yl]bicyclo[3.1.0]hexane-6-carboxylic acid] | 2.69 |
| Nc1nccn2c([C@H]3C[C@@H]4[C@H](C3)[C@H]4C(=O)O)nc(-c3ccc(C(=O)Nc4cc(C(F)(F)F)ccn4)cc3)c12 [Example 139, (1R,3R,5S,6r)-3-[8-amino-1-(4-{[4-(trifluoromethyl)pyridin-2-yl]carbamoyl}phenyl)imidazo[1,5-a]pyrazin-3-yl]bicyclo[3.1.0] hexane-6-carboxylic acid] | 10 |
| Nc1nccn2c([C@H]3C[C@@H]4[C@H](C3)[C@@H]4C(=O)O)nc(-c3ccc(C(=O)Nc4cc(C(F)(F)F)ccn4)cc3)c12 [Example 140, (1R,3r,5S,6s)-3-[8-amino-1-(4-{[4-(trifluoromethyl)pyridin-2-yl]carbamoyl}phenyl)imidazo[1,5-a]pyrazin-3-yl]bicyclo[3.1.0] hexane-6-carboxylic acid] | 10 |
| C[C@]1(C(=O)O)CCC[C@@H](c2nc(-c3ccc(C(=O)Nc4cc(C(F)(F)F)ccn4)cc3)c3c(N)nccn23)C1 [Example 154, (1S,3R)-3-[8-amino-1-(4-{[4-(trifluoromethyl)pyridin-2-yl]carbamoyl}phenyl)imidazo[1,5-a]pyrazin-3-yl]-1-methylcyclohexane-carboxylic acid] | 10 |
| Nc1nccn2c1c(-c1ccc(C(=O)Nc3cc(C(F)(F)F)ccn3)cc1)nc2[C@H]1CC[C@@H](C(=O)O)CC1 [Example 158, cis-4-[8-amino-1-(4-{[4-(trifluoromethyl)pyridin-2-yl]carbamoyl}phenyl)imidazo[1,5-a]pyrazin-3-yl]cyclohexane-carboxylic acid] | 10 |
